The values below come from patent EP4353711A1, “QUINOLIN-2-YL NITRONES FOR THE TREATMENT AND PREVENTION OF STROKE” (Consejo Superior De Investigaciones Científicas, priority 2022, dated 2024).

The assay deals with male C57BL/6J mice. Description: pMCAO stroke model, infarct volume by T2-weighted MRI. The format is in vivo. To be noted: 85 mg/kg QN11 intraperitoneally 15 min after arterial ligature. As for the experimental part:
To study of the effects of QN11 on stroke recovery, administration of the vehicle and QN11 molecule was performed intraperitoneally, to 8-week-old male C57BL/6J mice (Harlan) weighing 25-30 g. All procedures with animals were carried out under a protocol approved by the Ethical Committee of the Spanish National Research Council (CSIC), and recommendations of the European Council. A special effort was made to keep to a minimum necessary the number of animals to achieve adequate significance. For surgery, anaesthesia induction was carried out with 3% isoflurane (in 70% N2O, 30% O2), followed by 2% isoflurane for maintenance during stroke procedure. Rectal temperature was maintained at 36.5 °C with the use of a heating pad. The common branch of the middle cerebral artery was, after craniotomy, exposed and occluded permanently by suture ligation. To ensure a complete artery occlusion during surgery, cortical blood flow was monitored by non-invasive laser Doppler flowmetry, as a quality control, with the aid of a Perimed equipment (PeriFlux System 5000 Stroke Model Monitor, Perimed, Järfälla, Sweden). […] Animals subjected to surgery for longer than 15 min were excluded of the study. Physiological parameters were maintained. […]
MRI is the most commonly used diagnostic tool for stroke. […] All MRI data was analysed using ImageJ software. […]

Turning to `[O-]/[N+](=C\c1ccc2cccc(O)c2n1)Cc1ccccc1` [QN11, (Z)-N-Benzyl-1-(8-hydroxyquinolin-2-yl)methanimine oxide], the “reduction in the percentage of brain infarct volume” value (MRI 48 h after pMCAO, compared with vehicle-treated animals (group b)) is recorded as 74,47%. The “infarct volume with regard to the whole brain volume” value (T2WI MRI 48 h after pMCAO, vehicle group b 2.453 %) is 0.6262%.
